Results: patent US20120071513A1, “Compositions and Their Use as Anti-Tumor Agents” (COMPASS PHARMACEUTICALS LLC, priority 2004, published 2012)

Assays:
[1] = tested on: A375 human melanoma xenografts; assay: in vivo anti-tumor activity, A375 xenografts; design: species or system mice; settings: 30 mg/kg
Method: The in vivo anti-tumor activity of CP5017808 was evaluated against A375 human melanoma xenografts and ovarian carcinoma.
CP5017808 was dissolved with heat and sonication in a 1:1 mixture of absolute ethanol and CREMAPHOR™ equivalent to 20% of the final desired volume, and then brought to a final volume with 40% hydroxypropyl-β-cyclodextin in water. CP5017808 produced a fine suspension with a pH of 6.2.
Female NCr nu/nu mice (Charles River Laboratory) were used for the study. They were 5-6 weeks old on Day 1 of the experiment. The animals were fed Rodent Diet 5010 (LabDiet™) and water ad libitum. The mice were housed in Thoren™ microisolator caging with Bed-O'Cobs™ bedding. […]
Body weights and tumor measurements were recorded three times weekly. […] T/C values were calculated by dividing the treated median tumor mass by the median control tumor mass and multiplying by 100. […] Tumor Growth Delay (T-C) was also used to quantify efficacy. Tumor growth delay for this experiment was expressed as a T-C value, where T and C are the median times in days required for the treatment and control group tumors, respectively, to grow to a selected evaluation size, 750 mg.
The time for individual tumors to reach evaluation size, time to fold growth, and tumor volume doubling times were analyzed by a single factor ANOVA. […]

[2] = tested on: A2780 human ovarian adenocarcinoma xenografts; assay: in vivo anti-tumor activity, A2780 xenografts; design: species or system mice; settings: 15 mg/kg, Day 19, positive control
Method: Body weights and tumor measurements were recorded three times weekly. Tumor burden (mg) was estimated from caliper measurements by the formula for the volume of a prolate ellipsoid assuming unit density as: Tumor burden (mg)=(L×W2)/2, where L and W are the respective orthogonal tumor length and width measurements (mm). The primary endpoints used to evaluate efficacy were study day 26 T/C values, complete and partial tumor responses, tumor growth delay, and the number of tumor-free survivors at the end of the study. T/C values were calculated by dividing the treated median tumor mass by the median control tumor mass and multiplying by 100. The USA National Cancer Institute (NCI) considers a compound which produces a % T/C value of 42 of less is active. Complete response (CR) is defined as a decrease in tumor mass to an undetectable size (<50 mg), and a partial response (PR) is defined as a ≧50% decrease in tumor mass from that at first treatment. […] Tumor Growth Delay (T-C) was also used to quantify efficacy. Tumor growth delay for this experiment was expressed as a T-C value, where T and C are the median times in days required for the treatment and control group tumors, respectively, to grow to a selected evaluation size, 750 mg. […]
Test animals were implanted subcutaneously on day 0 with 30 to 60 mg A2780 tumor fragments. […] Tumor mass on day 19 was analyzed by a single factor ANOVA. […]

Row | Structure (SMILES) | tumor growth delay ([1]; evaluation size 750 mg) | % T/C value ([1]; study day 26, positive control) | % T/C value [2]
1 | CC(=O)O[C@@]12CO[C@@H]1C[C@H](O)[C@@]1(C)C(=O)[C@H](O)C3=C(C)[C@@H](OC(=O)[C@H](O)[C@@H](NC(=O)OC(C)(C)C)c4ccccc4)C[C@@](O)([C@@H](OC(=O)c4ccccc4)[C@H]21)C3(C)C [docetaxel] | 10 days | 32% | 
2 | CC(=O)O[C@H]1C(=O)[C@@]2(C)[C@H]([C@H](OC(=O)c3ccccc3)[C@]3(O)C[C@H](OC(=O)[C@H](O)[C@@H](NC(=O)c4ccccc4)c4ccccc4)C(C)=C1C3(C)C)[C@]1(OC(C)=O)CO[C@@H]1C[C@@H]2O [Taxol®] |  |  | 15%
